A word on the EC50: it is the concentration giving half of the maximal effect. Read a low EC50 as higher potency in that assay.

Our source for the EC50 values is patent US8618138B2, “Indole amide derivatives and related compounds for use in the treatment of neurodegenerative diseases” (Katholieke Universiteit Leuven, K.U. Leuven R&D, priority 2009, dated 2013).

The first assay has as its system M17-TAU P301L cells. Briefly: TAU cytotoxicity assay: LDH leakage of retinoic acid incubated M17-TAU P301L cells. The class given is cell-based, human. Particulars: Homo sapiens, 168 h, reduction of LDH activity of retinoic acid incubated M17-TAU P301L cells, 7 days. An excerpt:
A TAU expression plasmid was constructed by sub-cloning the cDNA of human TAU-P301 L (encoding for TAU with proline 301 substituted by a leucine residue) into mammalian expression vector pcDNA3.1 resulting in plasmid pcDNA3.1-TAU P301L. Plasmids pcDNA3.1 and pcDNA3.1-TAU P301L were transfected to human neuroblastoma cells ([…]; ATCC No. CRL-2267) and independent clonal lines with the plasmids stably integrated into the genome were selected. […] Expression of the TAU P301L genes in the cell lines was confirmed by Western analysis.
In degenerated or dead cells lactate dehydrogenase (LDH) is leaked out of the cells into the extracellular environment due to a loss of plasma-membrane integrity. This principle was used to determine cytotoxicity by quantifying the level of leaked LDH into the growth medium.
The detailed method for determining TAU cytotoxicity was as follows: From appropriate precultures of M17-3.1 and M17-TAU(P301L) cells were seeded at 2500 cells/cm2 in Optimem Reduced Serum without phenol red (Gibco, Cat. 31985-047) supplemented with 1% fetal calf serum, 1 mM sodium pyruvate, 1× non-essential amino acids, 500 μg/ml G418 0.5× antibiotic/antimycotic. After 3 h of incubation at 37° C./5% CO2 1 volume of Optimem Reduced Serum (same as described above; except without fetal calf serum) supplemented with 2.5 μM retinoic acid (RA) was added. The cells were further incubated for 7 days. Subsequently, LDH activity was determined using Promega Cytotox 96 Non-Radioactive cytotoxicity assay, (Cat. G1780) according the supplier's instructions.
The M17-TAU P301L cell line made it possible to assess the ability of novel compounds to counteract TAU cytotoxicity. […] These measurements were used to calculate EC50 values of table 2.
Exemplary compounds of the present invention are shown in table 2, with their chemical name and their EC50 value (expressed in nM) as determined from example 196 in the Tau-induced toxicity experiment.
In general terms: Release of lactate dehydrogenase indicates damage to the cell membrane.
Compound `O=C(NCCc1c[nH]c2ccc(Cl)cc12)c1cc(C(O)c2ccccc2)on1` (stereo not drawn) [Example D195, N-(2-(5-chloro-1H-indol-3-yl)ethyl)-5-(hydroxy(phenyl)methyl)isoxazole-3-carboxamide] displayed an EC50 of 101 nM.
Same read-out and setting: the figure for `COc1ccc(OC)c(Cc2nc(C(=O)NCCc3c[nH]c4ccc(Cl)cc34)no2)c1` [Example D179, N-(2-(5-chloro-1H-indol-3-yl)ethyl)-5-(2,5-dimethoxybenzyl)-1,2,4-oxadiazole-3-carboxamide] is 51 nM; for `O=C(NCCc1c[nH]c2ccc(Cl)cc12)C1CCN(c2ccc3c(c2)COC3)C1=O` (stereo not drawn) [Example D146, N-(2-(5-chloro-1H-indol-3-yl)ethyl)-1-(1,3-dihydroisobenzofuran-5-yl)-2-oxopyrrolidine-3-carboxamide] it is 1160 nM; for `O=C(NCCc1c[nH]c2ccc(Cl)cc12)c1noc(Cc2ccc(C(F)(F)F)cc2)n1` [Example D187, N-(2-(5-chloro-1H-indol-3-yl)ethyl)-5-(4-(trifluoromethyl)benzyl)-1,2,4-oxadiazole-3-carboxamide] it is 32 nM.
On the same count and under the same terms, next, `O=C(NCCc1c[nH]c2ccc(Cl)cc12)c1noc(Cc2cccc(F)c2)n1` [Example D169, N-(2-(5-chloro-1H-indol-3-yl)ethyl)-5-(3-fluorobenzyl)-1,2,4-oxadiazole-3-carboxamide]: 26 nM; `O=C(c1cc(Cc2cc(F)ccc2F)on1)N1CCC(c2c[nH]c3ccc(Cl)cc23)CC1` [Example D139, (4-(5-chloro-1H-indol-3-yl)piperidin-1-yl)(5-(2,5-difluorobenzyl)isoxazol-3-yl)methanone]: 186 nM.
Still for that read-out and setting: the figure for `Cn1nc(C(=O)NCCc2c[nH]c3ccc(Cl)cc23)cc1-c1cccs1` [Example D15, N-(2-(5-chloro-1H-indol-3-yl)ethyl)-1-methyl-5-(thiophen-2-yl)-1H-pyrazole-3-carboxamide] is 21 nM; for `CCN(CC)Cc1cc(C(=O)NCCc2c[nH]c3ccc(Cl)cc23)no1` [Example D125, N-(2-(5-chloro-1H-indol-3-yl)ethyl)-5-((diethylamino)methyl)isoxazole-3-carboxamide] it is 347 nM; for `O=C(NCCc1c[nH]c2ccc(Cl)cc12)c1nnc(C2CCCCC2)o1` [Example D77, N-(2-(5-chloro-1H-indol-3-yl)ethyl)-5-cyclohexyl-1,3,4-oxadiazole-2-carboxamide] it is 595 nM.
With `O=C(NCCc1c[nH]c2ccc(Cl)cc12)c1cc(Cc2ccccc2)on1` [Example D7, 5-benzyl-N-(2-(5-chloro-1H-indol-3-yl)ethyl)isoxazole-3-carboxamide], a half-maximal response (EC50) required 15 nM.
The same measure, in the same setting: the figure for `Cc1cccc(N2CCC(C(=O)NCCc3c[nH]c4ccc(Cl)cc34)C2=O)c1` (stereo not drawn) [Example D159, N-(2-(5-chloro-1H-indol-3-yl)ethyl)-2-oxo-1-m-tolylpyrrolidine-3-carboxamide] is 900 nM; for `COc1ccc2c(CCNC(=O)c3cc(Cc4cccc(F)c4)on3)c[nH]c2c1` [Example D74, 5-(3-fluorobenzyl)-N-(2-(6-methoxy-1H-indol-3-yl)ethyl)isoxazole-3-carboxamide] it is 534 nM.
On the same count and under the same terms, the figure for `O=C(NCCc1c[nH]c2ccc(Cl)cc12)c1noc(Cc2ccccc2Cl)n1` [Example D191, N-(2-(5-chloro-1H-indol-3-yl)ethyl)-5-(2-chlorobenzyl)-1,2,4-oxadiazole-3-carboxamide] is 25 nM; for `O=C(NCCc1c[nH]c2ccc(Cl)cc12)c1nnc(-c2ccccc2)o1` [Example D52, N-(2-(5-chloro-1H-indol-3-yl)ethyl)-5-phenyl-1,3,4-oxadiazole-2-carboxamide] it is 158 nM; for `O=C(NCCc1c[nH]c2ccc(Cl)cc12)c1cc(-c2cccs2)on1` [Example D16, N-(2-(5-chloro-1H-indol-3-yl)ethyl)-5-(thiophen-2-yl)isoxazole-3-carboxamide] it is 21 nM.
The same measure, in the same setting: the figure for `O=C(NCCc1c[nH]c2ccc(Cl)cc12)c1noc(Cc2ccc(Cl)c(F)c2)n1` [Example D175, N-(2-(5-chloro-1H-indol-3-yl)ethyl)-5-(4-chloro-3-fluorobenzyl)-1,2,4-oxadiazole-3-carboxamide] is 94 nM; for `O=C(NCCc1c[nH]c2ccc(Cl)cc12)c1noc(Cc2ccc(Cl)c(Cl)c2)n1` [Example D174, N-(2-(5-chloro-1H-indol-3-yl)ethyl)-5-(3,4-dichlorobenzyl)-1,2,4-oxadiazole-3-carboxamide] it is 282 nM; for `O=C(NCCc1c[nH]c2ccc(Cl)cc12)c1noc(Cc2cccc(C(F)(F)F)c2)n1` [Example D186, N-(2-(5-chloro-1H-indol-3-yl)ethyl)-5-(3-(trifluoromethyl)benzyl)-1,2,4-oxadiazole-3-carboxamide] it is 119 nM.
`CC(C)(C)c1cc(C(=O)NCCc2c[nH]c3ccc(Cl)cc23)n(Cc2ccccc2)n1` [Example D120, 1-benzyl-3-tert-butyl-N-(2-(5-chloro-1H-indol-3-yl)ethyl)-1H-pyrazole-5-carboxamide] had an EC50 of 868 nM.
The same measure, in the same setting: next, `COc1ccc2[nH]cc(CCNC(=O)c3sc(-c4ccc(C)cc4)nc3C)c2c1` [Example D32, N-(2-(5-methoxy-1H-indol-3-yl)ethyl)-4-methyl-2-p-tolylthiazole-5-carboxamide]: 50 nM; `O=C(NCCc1c[nH]c2ccc(Cl)cc12)C1CC(c2ccccc2)=NO1` (stereo not drawn) [Example D50, N-(2-(5-chloro-1H-indol-3-yl)ethyl)-3-phenyl-4,5-dihydroisoxazole-5-carboxamide]: 151 nM.
In the case of `O=C(NCCc1c[nH]c2ccc(Cl)cc12)c1cc(Cc2ccc(F)c(F)c2)on1` [Example D129, N-(2-(5-chloro-1H-indol-3-yl)ethyl)-5-(3,4-difluorobenzyl)isoxazole-3-carboxamide], the EC50 was 8 nM.
For the compound `O=C(NCCc1c[nH]c2ccc(Cl)cc12)c1cc(Cc2cc(F)cc(F)c2)on1` [Example D131, N-(2-(5-chloro-1H-indol-3-yl)ethyl)-5-(3,5-difluorobenzyl)isoxazole-3-carboxamide], the EC50 turned out to be 13 nM.
In turn, `O=C(NCCc1c[nH]c2ccc(-c3ccccc3)cc12)c1cc(Cc2cc(F)ccc2F)on1` [Example D140, 5-(2,5-difluorobenzyl)-N-(2-(5-phenyl-1H-indol-3-yl)ethyl)isoxazole-3-carboxamide] had an EC50 of 316 nM.
Same read-out and setting: next, `O=C(CCc1c[nH]c2ccc(Cl)cc12)N1CCN(Cc2ccccc2)C1` [Example D126, 1-(3-benzylimidazolidin-1-yl)-3-(5-chloro-1H-indol-3-yl)propan-1-one]: 357 nM.
The same measure, in the same setting: next, `O=C(NCCc1c[nH]c2ccc(Cl)cc12)C1=N[C@H](Cc2ccccc2)CO1` [Example D81, (R)-4-benzyl-N-(2-(5-chloro-1H-indol-3-yl)ethyl)-4,5-dihydrooxazole-2-carboxamide]: 917 nM; `O=C(NCCc1c[nH]c2ccc(Cl)cc12)C1=NOC(c2ccccc2)C1` (stereo not drawn) [Example D55, N-(2-(5-chloro-1H-indol-3-yl)ethyl)-5-phenyl-4,5-dihydroisoxazole-3-carboxamide]: 189 nM; `Cc1oc(-c2ccccc2)nc1C(=O)NCCc1c[nH]c2ccc(Cl)cc12` [Example D62, N-(2-(5-chloro-1H-indol-3-yl)ethyl)-5-methyl-2-phenyloxazole-4-carboxamide]: 237 nM.
The same measure, in the same setting: the figure for `COc1ccccc1Cc1nc(C(=O)NCCc2c[nH]c3ccc(Cl)cc23)no1` [Example D183, N-(2-(5-chloro-1H-indol-3-yl)ethyl)-5-(2-methoxybenzyl)-1,2,4-oxadiazole-3-carboxamide] is 47 nM.
As for `N#Cc1cccc(Cc2cc(C(=O)NCCc3c[nH]c4ccc(Cl)cc34)no2)c1` [Example D3, N-(2-(5-chloro-1H-indol-3-yl)ethyl)-5-(3-cyanobenzyl)isoxazole-3-carboxamide], the midpoint of the response, the EC50, lay at 6 nM.
Still for that read-out and setting: the figure for `CN(C)c1cc(C(=O)NCCc2c[nH]c3ccc(Cl)cc23)no1` [Example D124, N-(2-(5-chloro-1H-indol-3-yl)ethyl)-5-(dimethylamino)isoxazole-3-carboxamide] is 5290 nM; for `CC(C)(C)OC(=O)Nc1cc(C(=O)NCCc2c[nH]c3ccc(Cl)cc23)no1` [Example D29, tert-butyl 3-(2-(5-chloro-1H-indol-3-yl)ethylcarbamoyl)isoxazol-5-ylcarbamate] it is 42 nM.

The assay is the same for the next values; noted with them: reduction of LDH activity of retinoic acid incubated M17-TAU P301L cells, 7 days.
In turn, `CC(c1ccccc1)N1CCC(C(=O)NCCc2c[nH]c3ccc(Cl)cc23)C1=O` (single isomer, unassigned) [D156 Fraction B, N-(2-(5-chloro-1H-indol-3-yl)ethyl)-2-oxo-1-(1-phenylethyl)pyrrolidine-3-carboxamide] displayed an EC50 of 1180 nM.
